Source: patent publication US6780431B1, “Substituted benzylthiazolidine-2,4-dione derivatives” (Kyorin Pharmaceutical Co., Ltd., priority 1999, dated 2004)
Read-outs that look alike come from different tables or passages of the source.

How the values were obtained:
[1] = target: T1, human type PPARα ligand-binding domain fused with yeast transcription factor DNA-binding domain (Homo sapiens, UniProt Q07869); experiment: Test of transactivation on PPARα (CHO cells, reporter plasmid, CAT activity)
T1 sequence (Q07869 239-466 limits assumed): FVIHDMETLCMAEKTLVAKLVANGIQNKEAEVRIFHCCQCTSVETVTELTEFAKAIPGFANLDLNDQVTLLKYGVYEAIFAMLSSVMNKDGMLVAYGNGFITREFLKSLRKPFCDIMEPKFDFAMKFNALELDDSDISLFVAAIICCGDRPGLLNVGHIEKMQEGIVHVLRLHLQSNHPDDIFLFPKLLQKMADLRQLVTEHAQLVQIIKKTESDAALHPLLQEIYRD
Experimental: (§1) Test of Transactivation on Peroxisome Proliferator-activated Receptors α and β
(§2) After 24 hours, CAT activity and β-galactosidase activity were measured.

[2] = target: T2, human PPARγ ligand-binding domain fused with yeast transcription factor DNA-binding domain (Homo sapiens, UniProt P37231); experiment: Test of transactivation on PPARγ (CHO cells, reporter plasmid, CAT activity)
T2 sequence (P37231 238-503 limits assumed): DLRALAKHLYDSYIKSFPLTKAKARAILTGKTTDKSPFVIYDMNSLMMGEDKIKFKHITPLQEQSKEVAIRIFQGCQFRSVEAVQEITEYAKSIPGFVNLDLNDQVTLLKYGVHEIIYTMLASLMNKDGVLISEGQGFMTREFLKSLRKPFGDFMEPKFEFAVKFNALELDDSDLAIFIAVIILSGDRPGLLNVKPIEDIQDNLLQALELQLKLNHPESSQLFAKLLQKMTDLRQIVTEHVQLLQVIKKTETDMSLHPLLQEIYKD
Experimental: as §1, §2

Row | SMILES | EC50 [1] [nM] | EC50 [2] [nM] | EC50 ([1]; read-out: Transactivation PPARα EC50, CHO cells, 24 hours, CAT activity with β-galactosidase internal standard) [nM] | melting point [°C]
1 | COc1ccc(CC2SC(=O)NC2=O)cc1C(=O)NCc1cccc(OC(F)(F)F)c1 (stereo not drawn) [Example 4] | 180 | 360 |  | 
2 | COc1ccc(CC2SC(=O)NC2=O)cc1C(=O)NCc1ccc(Cl)cc1 (stereo not drawn) [Example 3] | 260 | 400 |  | 199 to 201
3 | COc1ccc(CC2SC(=O)NC2=O)cc1C(=O)NCc1ccc(Cl)c(Cl)c1 (stereo not drawn) (hydrate or solvate) [Example 9] |  |  |  | 181 to 182
4 | COc1ccc(CC2SC(=O)NC2=O)cc1C(=O)NCc1ccc(Cl)c(Cl)c1 (stereo not drawn) [Example 9] | 700 | 1100 |  | 
5 | COc1ccc(CC2SC(=O)NC2=O)cc1C(=O)NCc1ccc(Cl)cc1Cl (stereo not drawn) (hydrate or solvate) [Example 8] |  |  |  | 188 to 189
6 | COc1ccc(CC2SC(=O)NC2=O)cc1C(=O)NCc1ccc([N+](=O)[O-])cc1 (stereo not drawn) [Example 1, N-[(4-Nitrophenyl)methyl]-5-[(2,4-dioxothiazolidin-5-yl)methyl]-2-methoxybenzamide] | 530 | 1600 |  | 236.5 to 238.5
7 | COc1ccc(CC2SC(=O)NC2=O)cc1C(=O)NCc1ccc(Br)cc1 (stereo not drawn) [Example 2] | 490 | 290 |  | 198 to 200
8 | COc1ccc(CC2SC(=O)NC2=O)cc1C(=O)NCc1ccc(Cl)cc1Cl (stereo not drawn) [Example 8] | 220 | 280 |  | 

More lines, now with the values ahead:

Row | EC50 [1] [nM] | EC50 [2] [nM] | EC50 ([1]; read-out: Transactivation PPARα EC50, CHO cells, 24 hours, CAT activity with β-galactosidase internal standard) [nM] | melting point [°C] | SMILES
9 |  |  | 1300 |  | CCCCC/C=C\C/C=C\C=C\[C@@H](O)C/C=C\CCCC(=O)O [(8S)-HETE, reference compound]
10 |  |  |  | 132 to 133 | CCCOc1ccc(CNC(=O)c2cc(CC3SC(=O)NC3=O)ccc2OC)cc1 (stereo not drawn) (hydrate or solvate) [Example 7]
11 |  |  |  | 79 to 81.5 | COc1ccc(CC2SC(=O)NC2=O)cc1C(=O)NCc1ccc(OC(C)C)cc1 (stereo not drawn) (hydrate or solvate) [Example 6]
12 | 430 | 300 |  | 130 to 132 | CCOc1ccc(CNC(=O)c2cc(CC3SC(=O)NC3=O)ccc2OC)cc1 (stereo not drawn) [Example 5]
13 | 760 | 110 |  |  | COc1ccc(CC2SC(=O)NC2=O)cc1C(=O)NCc1ccc(OC(C)C)cc1 (stereo not drawn) [Example 6]
14 | 110 | 1800 |  |  | CCCOc1ccc(CNC(=O)c2cc(CC3SC(=O)NC3=O)ccc2OC)cc1 (stereo not drawn) [Example 7]
